# Data taken from ChEMBL document CHEMBL1201862, “PubChem BioAssay data set” (2004).
# Active and inactive are the calls of the source.
# Tests used:
# [1] = target: T1, Replicative DNA helicase DnaB (Mycobacterium tuberculosis, UniProt P9WMR3); assay: DnaB intein splicing inhibitors, dose response, biochemical, cell-free fluorescence (AID 449749); assay type: functional
# T1 sequence (P9WMR3 whole entry): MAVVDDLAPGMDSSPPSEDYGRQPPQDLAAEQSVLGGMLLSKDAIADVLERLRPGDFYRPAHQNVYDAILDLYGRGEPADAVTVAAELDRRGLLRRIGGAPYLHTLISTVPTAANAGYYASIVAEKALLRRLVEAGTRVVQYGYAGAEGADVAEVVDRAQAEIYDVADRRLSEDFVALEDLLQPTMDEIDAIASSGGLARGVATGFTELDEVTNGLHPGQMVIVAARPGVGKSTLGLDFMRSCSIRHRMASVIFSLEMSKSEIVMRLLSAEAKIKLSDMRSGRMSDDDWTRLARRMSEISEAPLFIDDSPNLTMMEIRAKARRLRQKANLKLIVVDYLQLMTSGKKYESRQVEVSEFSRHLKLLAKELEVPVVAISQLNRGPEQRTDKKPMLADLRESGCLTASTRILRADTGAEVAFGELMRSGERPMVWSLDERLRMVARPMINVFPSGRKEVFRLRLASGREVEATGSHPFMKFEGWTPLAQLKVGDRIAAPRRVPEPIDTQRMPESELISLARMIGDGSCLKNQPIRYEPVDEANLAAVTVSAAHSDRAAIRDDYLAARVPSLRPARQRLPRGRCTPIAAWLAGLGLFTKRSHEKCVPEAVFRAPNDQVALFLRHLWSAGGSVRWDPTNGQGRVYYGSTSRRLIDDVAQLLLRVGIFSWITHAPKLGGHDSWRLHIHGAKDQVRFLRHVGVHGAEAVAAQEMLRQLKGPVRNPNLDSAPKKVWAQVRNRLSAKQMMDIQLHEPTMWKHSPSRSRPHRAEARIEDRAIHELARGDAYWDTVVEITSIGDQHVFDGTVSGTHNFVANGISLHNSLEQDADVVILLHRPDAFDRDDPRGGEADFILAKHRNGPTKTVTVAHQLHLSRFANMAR
# Prothrombin = Prothrombin (Homo sapiens, UniProt P00734); assay: Thrombin 1536 HTS Dose Response Confirmation. [Related pubchem assays: 1046 (Thrombin 1536 HTS; hits were confirmed in this assay)]; assay type: functional
# Protein RecA = target: T2, Protein RecA (Mycobacterium tuberculosis, UniProt P9WHJ3); assay: Fluorescence Cell-Free Homogeneous Dose Retest to Identify Inhibitors of RecA-Intein Splicing Activity. [Related pubchem assays (depositor defined):AID2097, AID2223, AID489010, AID492950]; assay type: functional
# T2 sequence (P9WHJ3 whole entry): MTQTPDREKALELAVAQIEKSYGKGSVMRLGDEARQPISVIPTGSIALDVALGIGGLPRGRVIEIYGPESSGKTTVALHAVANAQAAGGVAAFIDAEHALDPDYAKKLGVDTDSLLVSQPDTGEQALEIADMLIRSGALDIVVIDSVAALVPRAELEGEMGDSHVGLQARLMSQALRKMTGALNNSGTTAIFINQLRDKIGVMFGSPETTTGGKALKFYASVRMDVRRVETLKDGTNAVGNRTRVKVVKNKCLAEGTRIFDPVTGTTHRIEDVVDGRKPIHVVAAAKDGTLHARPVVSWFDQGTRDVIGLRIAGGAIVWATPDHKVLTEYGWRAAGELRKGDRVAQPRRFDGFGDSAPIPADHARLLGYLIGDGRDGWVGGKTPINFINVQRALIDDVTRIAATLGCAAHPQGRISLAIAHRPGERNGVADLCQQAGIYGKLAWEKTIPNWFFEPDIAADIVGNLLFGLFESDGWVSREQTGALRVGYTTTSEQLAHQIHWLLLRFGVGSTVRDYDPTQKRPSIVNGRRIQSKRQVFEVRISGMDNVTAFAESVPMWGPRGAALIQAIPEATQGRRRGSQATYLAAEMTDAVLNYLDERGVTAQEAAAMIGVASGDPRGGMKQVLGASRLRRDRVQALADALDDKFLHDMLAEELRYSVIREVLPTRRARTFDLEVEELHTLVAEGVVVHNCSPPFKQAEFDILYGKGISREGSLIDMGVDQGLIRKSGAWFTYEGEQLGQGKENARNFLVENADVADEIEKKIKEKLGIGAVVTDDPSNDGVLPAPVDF
# cells [2] = assay type: functional, cell-based
# cells [3] = assay type: functional, cell-based; remark: listed apart in the source
# [4] = target: T3, Adenosylmethionine-8-amino-7-oxononanoate aminotransferase (Mycobacterium tuberculosis, UniProt P9WQ81); assay: Mycobacterium tuberculosis BioA enzyme inhibitor Measured in Biochemical System Using Plate Reader - 2163-02_Inhibitor_Dose_CherryPick_Activity.; assay type: functional, Mycobacterium tuberculosis UT205
# T3 sequence (P9WQ81 whole entry): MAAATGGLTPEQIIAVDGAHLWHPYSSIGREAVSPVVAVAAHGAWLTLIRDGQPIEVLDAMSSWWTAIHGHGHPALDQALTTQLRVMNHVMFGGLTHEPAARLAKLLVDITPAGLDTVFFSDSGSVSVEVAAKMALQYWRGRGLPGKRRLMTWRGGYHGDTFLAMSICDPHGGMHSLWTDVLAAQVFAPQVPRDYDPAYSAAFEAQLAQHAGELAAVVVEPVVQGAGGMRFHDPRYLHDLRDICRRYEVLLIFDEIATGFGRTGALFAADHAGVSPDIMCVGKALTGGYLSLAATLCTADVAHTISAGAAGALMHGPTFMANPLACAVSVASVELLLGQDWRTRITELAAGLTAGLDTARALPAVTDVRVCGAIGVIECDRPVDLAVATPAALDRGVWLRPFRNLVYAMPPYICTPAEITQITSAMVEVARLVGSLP
# HeLa = assay: HeLa cell cytotoxicity, dose response, cytotoxicity control for MITF activator project, CellTiter-Glo luminescence, cherry-pick samples (AID 540259); assay type: functional, cell-based; conditions: Homo sapiens
# [5] = inhibitors of intracellular T. cruzi replication, confirmation, NIH3T3 host cells, beta-gal luminescence (AID 2044); assay type: functional, cell-based;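 further: intracellular parasites grown in NIH/3T3 mouse fibroblasts as host cells; luminescent beta-galactosidase reporter signal from transgenic T. cruzi replicating inside host cells; inhibitors lower the luminescence signal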
# [6] = cytotoxicity toward NIH3T3 fibroblasts, dose response, counter-screen, cell-based, ATP luminescence, mouse fibroblasts (AID 2010); assay type: functional;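 further: cells exposed to compound for about 90 hours before reading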
# [7] = HepG2 cell cytotoxicity, dose response, cytotoxicity control for non-replicating M. tuberculosis project (AID 489018); assay type: functional; conditions: Mycobacterium tuberculosis
# [8] = THP-1 cell cytotoxicity, dose response, cytotoxicity control for non-replicating M. tuberculosis project (AID 489025); assay type: functional
# Paired box protein Pax-8 = Paired box protein Pax-8 (Homo sapiens, UniProt Q06710); assay: inhibitors of PAX8-driven TPO luciferase reporter, dose response, RMG-I cells, cherry-pick (AID 687027); assay type: functional, cell-based;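 further: luciferase reporter driven by Pax8 target thyroperoxidase promoter measured by SteadyGlo luminescence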
# Paired box protein Pax-8, sequence (Q06710 whole entry): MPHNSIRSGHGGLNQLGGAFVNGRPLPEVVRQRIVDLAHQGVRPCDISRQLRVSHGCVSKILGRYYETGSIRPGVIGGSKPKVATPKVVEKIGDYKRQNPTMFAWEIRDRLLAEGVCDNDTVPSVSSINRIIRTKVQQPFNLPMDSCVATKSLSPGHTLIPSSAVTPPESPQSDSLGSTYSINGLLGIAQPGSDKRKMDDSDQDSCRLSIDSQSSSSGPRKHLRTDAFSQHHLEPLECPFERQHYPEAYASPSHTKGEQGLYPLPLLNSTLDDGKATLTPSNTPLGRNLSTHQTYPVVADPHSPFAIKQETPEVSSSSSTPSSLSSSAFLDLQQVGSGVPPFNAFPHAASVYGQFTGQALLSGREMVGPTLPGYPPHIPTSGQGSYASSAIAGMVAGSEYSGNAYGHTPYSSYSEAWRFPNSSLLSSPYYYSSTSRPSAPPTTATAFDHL
# Vero = assay: cells; assay type: functional, cell-based; conditions: Chlorocebus sabaeus
# [9] = MC4R antagonists, dose response, counter-screen for LGR2 antagonist project, cell-based, plate reader, cherry pick (AID 743444); assay type: functional;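 further: transfected HEK 293 cells stimulated with alpha-MSH peptide; potency of inhibitors of the alpha-MSH evoked signal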
# [10] = Luminescence Cell-Based Dose Confirmation HTS to Identify Inhibitors of Platelet Dense Granule Release. [Related pubchem assays: 1663 (Primary HTS), 1678 (Summary of Project)]; assay type: functional
# [11] = A549 cell cytotoxicity, dose response, cytotoxicity control, plate reader, cherry-pick, antagonist series (AID 743412); assay type: functional, cell-based
# [12] = target: T4, Luciferin 4-monooxygenase (Photinus pyralis, UniProt P08659); assay: firefly luciferase enzyme inhibitors, dose response, biochemical, luminescence (AID 1891)
# T4 sequence (P08659 whole entry): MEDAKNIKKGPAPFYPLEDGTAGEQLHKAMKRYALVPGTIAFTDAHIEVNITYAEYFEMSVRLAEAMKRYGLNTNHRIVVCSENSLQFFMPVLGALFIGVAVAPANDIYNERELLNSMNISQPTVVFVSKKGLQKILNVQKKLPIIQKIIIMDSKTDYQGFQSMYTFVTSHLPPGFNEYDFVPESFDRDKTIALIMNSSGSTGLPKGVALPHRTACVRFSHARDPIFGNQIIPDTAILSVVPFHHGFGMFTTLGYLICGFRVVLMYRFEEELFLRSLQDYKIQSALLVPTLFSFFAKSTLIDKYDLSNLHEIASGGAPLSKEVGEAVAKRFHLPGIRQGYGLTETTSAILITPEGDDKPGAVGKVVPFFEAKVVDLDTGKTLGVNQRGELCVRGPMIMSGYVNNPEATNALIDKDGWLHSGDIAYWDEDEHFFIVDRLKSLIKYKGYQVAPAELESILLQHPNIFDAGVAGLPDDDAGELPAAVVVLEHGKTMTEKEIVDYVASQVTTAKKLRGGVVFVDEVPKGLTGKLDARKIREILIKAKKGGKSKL
# [13] = LGR2 antagonists, dose response, cell-based, HEK293, CRE-luciferase reporter, cherry pick, set 2 (AID 743343); assay type: functional;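 further: transfected cells were stimulated with diluted bursicon conditioned medium after compound addition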
# [14] = HepG2 cell cytotoxicity, dose response, cytotoxicity control, plate reader, cherry-pick, antagonist series (AID 743416); assay type: functional, cell-based
# HT-1080 = assay: cytotoxicity in HT1080 fibrosarcoma cells, cell-based, fluorescence readout (AID 620); assay type: functional; conditions: Homo sapiens
# [15] = target: T4, Luciferin 4-monooxygenase; assay: Counter Screen for Luciferase-based Assay Positives. [Related pubchem assays: 620, 618, 411 ]
# [16] = target: Dual specificity tyrosine-phosphorylation-regulated kinase 1A (Rattus norvegicus, UniProt Q63470); assay type: biochemical, Homo sapiens
# Leucine aminopeptidase = target: T5, Leucine aminopeptidase (Plasmodium falciparum 3D7, UniProt Q8IL11); assay: P. falciparum M17LAP inhibitors, primary screen, biochemical, fluorogenic H-Leu-NHMec substrate, 1536-well (AID 1619); assay type: functional
# T5 sequence (Q8IL11 whole entry): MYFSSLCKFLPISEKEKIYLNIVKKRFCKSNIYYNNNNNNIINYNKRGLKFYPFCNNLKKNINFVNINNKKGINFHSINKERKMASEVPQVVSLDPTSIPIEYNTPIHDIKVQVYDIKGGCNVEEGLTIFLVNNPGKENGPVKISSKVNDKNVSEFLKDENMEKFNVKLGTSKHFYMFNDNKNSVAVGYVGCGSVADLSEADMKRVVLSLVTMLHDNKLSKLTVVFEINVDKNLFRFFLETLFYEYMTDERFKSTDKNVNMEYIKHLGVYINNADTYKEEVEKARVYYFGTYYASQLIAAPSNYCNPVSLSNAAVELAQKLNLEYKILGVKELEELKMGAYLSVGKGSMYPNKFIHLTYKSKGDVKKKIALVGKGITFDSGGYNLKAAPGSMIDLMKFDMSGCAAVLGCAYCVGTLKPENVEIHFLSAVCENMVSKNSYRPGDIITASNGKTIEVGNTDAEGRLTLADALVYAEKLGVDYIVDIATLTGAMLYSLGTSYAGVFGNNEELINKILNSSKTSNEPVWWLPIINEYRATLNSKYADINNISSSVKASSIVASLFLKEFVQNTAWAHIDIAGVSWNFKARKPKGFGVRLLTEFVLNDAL
# Estrogen receptor beta = Estrogen receptor beta (Homo sapiens, UniProt Q92731);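 further: recombinant ER-beta bound to coactivator SRC1 peptide in presence of estradiol agonist; inhibitors block coactivator peptide binding and lower the FRET signal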
# Estrogen receptor beta, sequence (Q92731 whole entry): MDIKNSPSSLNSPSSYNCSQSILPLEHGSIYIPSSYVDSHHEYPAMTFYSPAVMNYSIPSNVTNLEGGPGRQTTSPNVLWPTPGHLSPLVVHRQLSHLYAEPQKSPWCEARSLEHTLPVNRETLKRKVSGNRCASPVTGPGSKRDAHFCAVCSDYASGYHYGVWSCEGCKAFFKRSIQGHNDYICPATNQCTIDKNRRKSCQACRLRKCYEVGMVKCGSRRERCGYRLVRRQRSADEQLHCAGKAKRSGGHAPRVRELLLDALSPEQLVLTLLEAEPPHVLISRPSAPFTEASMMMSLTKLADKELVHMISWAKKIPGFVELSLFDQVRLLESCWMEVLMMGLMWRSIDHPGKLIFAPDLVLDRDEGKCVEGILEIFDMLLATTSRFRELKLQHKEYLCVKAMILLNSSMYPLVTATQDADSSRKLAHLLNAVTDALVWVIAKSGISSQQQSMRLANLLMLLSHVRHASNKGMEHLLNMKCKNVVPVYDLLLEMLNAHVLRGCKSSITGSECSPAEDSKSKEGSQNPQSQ
# [17] = target: FAD-linked sulfhydryl oxidase ALR (Homo sapiens, UniProt P55789); assay: inhibitors of human ALR sulfhydryl oxidase, dose response, biochemical, H2O2 detection, luminescence, cherry-pick (AID 493248)
# FAD-linked sulfhydryl oxidase ALR, sequence (P55789 whole entry): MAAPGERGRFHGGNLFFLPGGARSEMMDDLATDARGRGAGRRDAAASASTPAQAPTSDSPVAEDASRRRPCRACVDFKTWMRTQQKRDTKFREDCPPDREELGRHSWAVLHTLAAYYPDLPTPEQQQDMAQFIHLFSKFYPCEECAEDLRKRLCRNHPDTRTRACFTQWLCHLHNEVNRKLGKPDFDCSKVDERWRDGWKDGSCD
compound,measurement,setting,value
Nc1nc(C(=O)N2CCOCC2)nn1C(=O)c1ccc(Cl)cc1,AC50,[1],12.5 µM (active)
same,IC50,Prothrombin,0.00512 µM (active)
same,EC50,Protein RecA,23.4 µM (active)
CC[n+]1c(S(=O)(=O)[O-])ccc2ccc(C)cc21,EC50,cells [2],> 350 µM (not active)
same,EC50,cells [3],> 350 µM (not active)
Cc1c(C(N)=O)sc(N)c1C(=O)OC(C)C,AC50,[4],3.06 µM (active)
Cc1ccc(NCC(=O)c2ccc(C)cc2)cc1,AC50,HeLa,103 µM (active)
same,EC50,[5],4.53 µM (active)
same,EC50,[6],> 60 µM (not active)
CCOC(=O)Nc1ccc2c(c1)N(C(=O)CCCl)c1ccccc1[S@]2=O,CC50,[7],18.9 µM (active)
same,CC50,[8],24.7 µM (active)
same,AC50,Paired box protein Pax-8,4.57 µM (active)
CCN(CC)CCCNC(=O)c1ccc2c(Cl)c3c(nc2c1)CCCC3,IC50,Vero,22.6 µM (active)
CCCc1ccc(-c2ccc(F)c(N)c2)nc1,AC50,[9],4.06 µM (active)
same,EC50,[10],6.17 µM (active)
same,AC50,[11],> 52 µM (inactive)
same,EC50,[12],6.33 µM (active)
same,AC50,[13],4.32 µM (active)
same,AC50,[14],> 52 µM (inactive)
same,EC50,HT-1080,> 50 µM (not active)
same,EC50,[15],1.58 µM (active)
CCn1cc(C(=O)NCc2ccc(Cl)cc2)c(=O)c2cc(S(=O)(=O)N3CCOCC3)ccc21,IC50,Prothrombin,8.07 µM (active)
Cc1cccc(NC(=S)NC(=O)/C=C/c2ccccc2)n1,IC50,Prothrombin,> 50 µM (not active)
CC(=O)Nc1cccc(-c2nc3ccc(NC(C)=O)cc3s2)c1,AC50,HeLa,59.3 µM (active)
O=C(O)COc1ccc(/C=C/c2ccc3cccc([N+](=O)[O-])c3n2)cc1,AC50,[16],6.6 µM (active)
same,IC50,Leucine aminopeptidase,23.2 µM (active)
CC(Oc1ccc2ccc(=O)oc2c1)C(=O)NCCN1CCOCC1 (stereo not given),EC50,cells [2],> 350 µM (not active)
same,EC50,cells [3],> 350 µM (not active)
O=C1OC(Nc2ccc3c(c2)OCO3)c2ccccc21 (stereo not given),IC50,Estrogen receptor beta,> 50 µM (not active)
same,AC50,[17],0.577 µM (active)
